From BindingDB's records for doi:10.1021/acs.jmedchem.7b00141 (National Institute of Diabetes and Digestive and Kidney …, 2017)

Legend:
[1] = molecular target: Sodium-dependent noradrenaline transporter (Homo sapiens, UniProt P23975); experiment: ChEBML_1661745
Description: Inhibition of [3H]mazindol binding to recombinant human NET expressed in HEK293 cell membranes preincubated for 10 mins followed by radioligand addition measured after 90 mins by micro beta scintillation counting analysis

[2] = molecular target: T1, Sodium-dependent serotonin transporter (Homo sapiens, UniProt P31645); experiment: Inhibition of [3H]mazindol binding to recombinant human SERT expressed in HEK293 cell membranes preincubated for 10 mins followed by radioligand addition measured after 90 mins by micro beta scintillation counting analysis
T1 sequence (P31645 whole entry): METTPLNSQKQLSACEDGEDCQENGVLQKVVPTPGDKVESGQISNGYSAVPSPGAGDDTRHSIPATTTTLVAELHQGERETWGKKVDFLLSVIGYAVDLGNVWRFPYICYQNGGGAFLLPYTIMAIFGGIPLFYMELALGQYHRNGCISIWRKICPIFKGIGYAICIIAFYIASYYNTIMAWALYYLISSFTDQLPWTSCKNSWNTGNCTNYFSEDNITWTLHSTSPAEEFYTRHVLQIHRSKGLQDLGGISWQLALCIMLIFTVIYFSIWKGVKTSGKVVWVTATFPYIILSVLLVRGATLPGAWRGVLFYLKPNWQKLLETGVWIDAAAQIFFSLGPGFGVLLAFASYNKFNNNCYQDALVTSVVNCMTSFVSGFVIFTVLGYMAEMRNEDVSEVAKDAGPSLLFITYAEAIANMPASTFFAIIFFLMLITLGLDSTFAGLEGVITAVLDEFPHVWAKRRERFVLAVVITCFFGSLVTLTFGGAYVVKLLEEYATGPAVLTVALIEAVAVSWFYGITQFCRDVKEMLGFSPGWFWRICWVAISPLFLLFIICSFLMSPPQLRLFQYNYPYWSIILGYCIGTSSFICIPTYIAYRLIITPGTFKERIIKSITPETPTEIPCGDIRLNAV

[3] = molecular target: T1, Sodium-dependent serotonin transporter; experiment: Inhibition of [125I]RTI-55 binding to recombinant human SERT expressed in HEK293 cell membranes preincubated for 10 mins followed by radioligand addition measured after 90 mins by micro beta scintillation counting analysis

Sodium-dependent noradrenaline transporter, sequence (P23975 whole entry): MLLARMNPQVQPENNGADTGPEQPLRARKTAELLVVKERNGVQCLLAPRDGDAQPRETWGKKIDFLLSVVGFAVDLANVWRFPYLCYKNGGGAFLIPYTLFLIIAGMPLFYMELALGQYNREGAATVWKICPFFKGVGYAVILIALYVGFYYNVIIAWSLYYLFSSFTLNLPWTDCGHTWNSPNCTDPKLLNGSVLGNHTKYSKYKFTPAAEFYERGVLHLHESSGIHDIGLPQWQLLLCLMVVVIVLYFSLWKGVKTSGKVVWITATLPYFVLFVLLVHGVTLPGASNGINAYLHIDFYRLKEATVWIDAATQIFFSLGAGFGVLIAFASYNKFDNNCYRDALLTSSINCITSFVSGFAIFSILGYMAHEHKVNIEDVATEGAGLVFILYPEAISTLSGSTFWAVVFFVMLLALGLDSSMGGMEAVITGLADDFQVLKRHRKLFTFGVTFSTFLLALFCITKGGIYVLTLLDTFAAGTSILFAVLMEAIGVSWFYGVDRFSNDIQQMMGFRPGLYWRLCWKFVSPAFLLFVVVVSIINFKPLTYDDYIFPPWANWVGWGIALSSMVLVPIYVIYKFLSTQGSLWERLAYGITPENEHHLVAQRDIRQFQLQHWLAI

COC(=O)[C@H]1[C@@H](c2ccc([125I])cc2)CC2CC[C@H]1N2C
Ki [1]: 70 nM | Ki [2]: 1.3 nM

O[C@]1(c2ccc(Cl)cc2)c2ccccc2C2=NCCN21 [Mazanor]
Ki [2]: 45 nM | Ki [3]: 136 nM
